Article PMC11171525 (Cells, 2024)
Read-outs that look alike come from different tables or passages of the source. Each block holds one compound with its values, some of them ahead of it.

Columns and labels:
PpCM1 = assay: CM activity assay, recombinant PpCM1 (disappearance of chorismate at 274 nm); format: biochemical, Pinus pinaster; conditions: for impact on activity (activation or inhibition), effector screening: threshold […] (Figure S2)
Procedure: (§1) Similarly, the effect on CM activity of decreasing concentrations of the amino acids Phe, Tyr, and Trp was determined.
(§2) To study their catalytic properties, P. pinaster PpCM1 and PpCM2 were functionally expressed in E. coli, including N-terminal His-tags, lacking the predicted chloroplast signal peptides, and were subsequently purified with Ni^2+-affinity chromatography.

PpCM2 = assay: CM activity assay, recombinant PpCM2 (disappearance of chorismate at 274 nm); format: biochemical, Pinus pinaster; conditions: for impact on activity (activation or inhibition), effector screening: threshold […] (Figure S2)
Procedure: as §1, §2

CMs from mosses = conditions: substrate chorismate; ref [30]; cited from earlier work
CMs from lycophytes = conditions: substrate chorismate; ref [30]; cited from earlier work
[1] = 2 mM amino acid, 1 mM chorismate
[2] = activation of CM activity by Trp, read-out: EC50 (Trp)
[3] = inhibition of CM activity by Phe, read-out: EC50 (Phe)
[4] = substrate chorismate, 50 mM Tris pH 8, 30 °C
[5] = substrate chorismate, turnover rate

Compound: N[C@@H](Cc1c[nH]c2ccccc12)C(=O)O [Trp, tryptophan]
increase in activity (PpCM1; [1]): 3.1 fold
impact on activity (activation or inhibition), effector screening (PpCM1; 2 mM amino acid): > 1.5 fold
EC50 (PpCM1; [2]): ~0.1 µM
increase in activity (PpCM2; [1]): 1.7 fold
impact on activity (activation or inhibition), effector screening (PpCM2; 2 mM amino acid): > 1.5 fold
EC50 (PpCM2; [2]): ~0.1 µM

EC50 (PpCM1; [3]): 36 µM
EC50 (PpCM2; [3]): 88 µM
Compound: N[C@@H](Cc1ccccc1)C(=O)O [Phe, phenylalanine]
reduction in activity compared to controls (PpCM1; [1]): 9.6 fold
impact on activity (activation or inhibition), effector screening (PpCM1; 2 mM amino acid): > 1.5 fold
reduction in activity compared to controls (PpCM2; [1]): 3 fold
impact on activity (activation or inhibition), effector screening (PpCM2; 2 mM amino acid): > 1.5 fold
retained activity (PpCM2; in the presence of 2 mM Phe): 30–35%

Compound: N[C@@H](Cc1ccc(O)cc1)C(=O)O [Tyr, tyrosine]
reduction in activity compared to controls (PpCM1; [1]): 11.4 fold
impact on activity (activation or inhibition), effector screening (PpCM1; 2 mM amino acid): > 1.5 fold
reduction in activity compared to controls (PpCM2; [1]): 10.1 fold
impact on activity (activation or inhibition), effector screening (PpCM2; 2 mM amino acid): > 1.5 fold

Km (PpCM1; [4]): 1600 µM
Km (PpCM2; [4]): 1700 µM
Compound: C=C(O[C@@H]1C=C(C(=O)O)C=C[C@H]1O)C(=O)O [chorismate]
Kcat (PpCM1; [5]): 29.4 s⁻¹
Kcat (PpCM2; [5]): 35 s⁻¹
Kcat (CMs from mosses): 19.5 to 20.7 s⁻¹
Kcat (CMs from lycophytes): 18.8 s⁻¹
